Reference: publication PMC6887723, “Design and Synthesis of 4-(Heterocyclic Substituted Amino)-1H-Pyrazole-3-Carboxamide Derivatives and Their Potent Activity against Acute Myeloid Leukemia (AML)” (International Journal of Molecular Sciences, 2019)

How the values were obtained:
Assay in all cases: Hot-Spot kinase profiling
Format in all cases: biochemical
FLT4/VEGFR3 = target: T1, FLT4/VEGFR3 (Homo sapiens, UniProt P35916)
T1 construct: purchased Reaction Biology Corp
Protocol: (§1) Activities of kinases were determined using Hot-SpotSM kinase assay which was performed by Reaction Biology Corp. (Malvern PA, USA) as described previously.

Aurora B = target: T2, Aurora B (Homo sapiens, UniProt Q96GD4); details: read-out: % Enzyme Activity (Relative to DMSO Controls) Aurora B
T2 construct: purchased Reaction Biology Corp. (HotSpot kinase assay)
Protocol: as §1

c-MET = target: T3, c-MET (Homo sapiens, UniProt P08581); details: read-out: % Enzyme Activity (Relative to DMSO Controls) c-MET
T3 construct: purchased Reaction Biology Corp. (HotSpot kinase assay)
Protocol: as §1

FLT3 (F594_R595insR) = target: T4, FLT3 (F594_R595insR) (Homo sapiens, UniProt P36888, INS594R)
T4 construct: purchased Reaction Biology Corp
Protocol: as §1

JNK1 = target: T5, JNK1 (Homo sapiens, UniProt P45983); details: read-out: % Enzyme Activity (Relative to DMSO Controls) JNK1
T5 construct: purchased Reaction Biology Corp. (Malvern PA, USA)
Protocol: as §1

FLT3 (R595_E596insEY) = target: T6, FLT3 (R595_E596insEY) (Homo sapiens, UniProt P36888, INS595EY)
T6 construct: purchased Reaction Biology Corp
Protocol: as §1

JAK2 = target: T7, JAK2 (Homo sapiens, UniProt O60674); details: read-out: % Enzyme Activity (Relative to DMSO Controls) JAK2
T7 construct: purchased Reaction Biology Corp
Protocol: as §1

CDK2/cyclin A = target: T8, CDK2/cyclin A (Homo sapiens, UniProt P24941)
T8 construct: purchased Reaction Biology Corp
Protocol: as §1

BRAF = target: T9, BRAF (Homo sapiens, UniProt P15056); details: read-out: % Enzyme Activity (Relative to DMSO Controls) BRAF
T9 construct: purchased Reaction Biology Corp. (HotSpot kinase assay)
Protocol: as §1

c-Kit = target: T10, c-Kit (Homo sapiens, UniProt P10721); details: read-out: % Enzyme Activity (Relative to DMSO Controls) c-Kit
T10 construct: purchased Reaction Biology Corp. (HotSpot kinase assay)
Protocol: as §1

[1] = target: T11, FLT3 (Y591-V592insVDFREYEYD) (Homo sapiens, UniProt P36888, INS591VDFREYEYD)
T11 construct: purchased Reaction Biology Corp
Protocol: as §1

CDK5/p35 = target: T12, CDK5/p35 (Homo sapiens, UniProt Q00535)
T12 construct: purchased Reaction Biology Corp
Protocol: as §1

CDK9/cyclin K = target: T13, CDK9/cyclin K (Homo sapiens, UniProt P50750)
T13 construct: purchased Reaction Biology Corp
Protocol: as §1

KDR/VEGFR2 = target: T14, KDR/VEGFR2 (Homo sapiens, UniProt P35968)
T14 construct: purchased Reaction Biology Corp. (Malvern PA, USA)
Protocol: as §1

FLT1/VEGFR1 = target: T15, FLT1/VEGFR1 (Homo sapiens, UniProt P17948)
T15 construct: purchased Reaction Biology Corp
Protocol: as §1

FLT3 (F594_R595insREY) = target: T16, FLT3 (F594_R595insREY) (Homo sapiens, UniProt P36888, INS594REY)
T16 construct: purchased Reaction Biology Corp
Protocol: as §1

CDK7/cyclin H = target: T17, CDK7/cyclin H (Homo sapiens, UniProt P50613)
T17 construct: purchased Reaction Biology Corp
Protocol: as §1

CDK4/cyclin D1 = target: T18, CDK4/cyclin D1 (Homo sapiens, UniProt P11802)
T18 construct: purchased Reaction Biology Corp
Protocol: as §1

FGFR1 = target: T19, FGFR1 (Homo sapiens, UniProt P11362); details: read-out: % Enzyme Activity (Relative to DMSO Controls) FGFR1
T19 construct: purchased Reaction Biology Corp. (HotSpot kinase assay)
Protocol: as §1

ALK1/ACVR1 = details: 0.15 μM
Protocol: as §1

FMS = target: T20, FMS (Homo sapiens, UniProt P07333); details: read-out: % Enzyme Activity (Relative to DMSO Controls) FMS
T20 construct: purchased Reaction Biology Corp
Protocol: as §1

T18 sequence (P11802 whole entry): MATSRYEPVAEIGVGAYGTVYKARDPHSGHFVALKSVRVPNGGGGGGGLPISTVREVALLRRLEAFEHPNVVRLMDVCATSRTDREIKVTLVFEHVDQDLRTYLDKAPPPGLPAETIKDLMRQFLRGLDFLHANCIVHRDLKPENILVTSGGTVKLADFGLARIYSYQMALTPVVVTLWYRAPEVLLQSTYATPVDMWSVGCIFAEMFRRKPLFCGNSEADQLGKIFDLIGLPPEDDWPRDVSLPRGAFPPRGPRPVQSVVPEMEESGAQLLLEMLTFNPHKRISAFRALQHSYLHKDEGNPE
T18 sequence (P24385 whole entry partner): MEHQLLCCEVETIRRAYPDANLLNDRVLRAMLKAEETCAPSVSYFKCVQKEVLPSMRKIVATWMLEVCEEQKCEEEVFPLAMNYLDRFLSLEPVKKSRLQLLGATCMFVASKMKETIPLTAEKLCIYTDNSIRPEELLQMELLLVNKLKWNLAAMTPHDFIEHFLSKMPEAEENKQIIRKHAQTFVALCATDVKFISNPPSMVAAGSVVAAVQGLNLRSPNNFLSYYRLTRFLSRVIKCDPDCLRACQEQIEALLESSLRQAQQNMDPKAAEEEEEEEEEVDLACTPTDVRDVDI
T16 sequence (P36888 with tags, fused parts or gaps INS594REY limits assumed): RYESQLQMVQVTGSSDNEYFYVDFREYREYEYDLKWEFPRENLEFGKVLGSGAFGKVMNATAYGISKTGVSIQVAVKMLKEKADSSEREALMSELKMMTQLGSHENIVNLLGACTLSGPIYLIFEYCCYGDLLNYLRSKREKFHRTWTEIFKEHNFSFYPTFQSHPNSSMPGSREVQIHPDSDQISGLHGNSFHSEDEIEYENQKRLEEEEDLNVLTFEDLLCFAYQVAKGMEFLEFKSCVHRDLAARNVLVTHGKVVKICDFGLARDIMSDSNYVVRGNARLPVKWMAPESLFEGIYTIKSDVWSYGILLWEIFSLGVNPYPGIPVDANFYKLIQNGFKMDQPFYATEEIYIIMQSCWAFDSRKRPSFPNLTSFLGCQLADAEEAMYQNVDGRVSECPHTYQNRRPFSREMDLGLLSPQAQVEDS
T13 sequence (P50750 whole entry): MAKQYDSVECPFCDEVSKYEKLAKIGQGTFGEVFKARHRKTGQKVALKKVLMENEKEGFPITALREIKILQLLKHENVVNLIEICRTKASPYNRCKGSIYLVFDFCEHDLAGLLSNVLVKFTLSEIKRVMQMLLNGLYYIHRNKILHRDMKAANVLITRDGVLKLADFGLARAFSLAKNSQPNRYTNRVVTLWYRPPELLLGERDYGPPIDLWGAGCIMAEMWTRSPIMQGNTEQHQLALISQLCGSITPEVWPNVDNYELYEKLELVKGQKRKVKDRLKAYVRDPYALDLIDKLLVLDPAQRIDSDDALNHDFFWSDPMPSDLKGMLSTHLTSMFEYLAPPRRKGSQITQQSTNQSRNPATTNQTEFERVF
T13 sequence (O75909 whole entry partner): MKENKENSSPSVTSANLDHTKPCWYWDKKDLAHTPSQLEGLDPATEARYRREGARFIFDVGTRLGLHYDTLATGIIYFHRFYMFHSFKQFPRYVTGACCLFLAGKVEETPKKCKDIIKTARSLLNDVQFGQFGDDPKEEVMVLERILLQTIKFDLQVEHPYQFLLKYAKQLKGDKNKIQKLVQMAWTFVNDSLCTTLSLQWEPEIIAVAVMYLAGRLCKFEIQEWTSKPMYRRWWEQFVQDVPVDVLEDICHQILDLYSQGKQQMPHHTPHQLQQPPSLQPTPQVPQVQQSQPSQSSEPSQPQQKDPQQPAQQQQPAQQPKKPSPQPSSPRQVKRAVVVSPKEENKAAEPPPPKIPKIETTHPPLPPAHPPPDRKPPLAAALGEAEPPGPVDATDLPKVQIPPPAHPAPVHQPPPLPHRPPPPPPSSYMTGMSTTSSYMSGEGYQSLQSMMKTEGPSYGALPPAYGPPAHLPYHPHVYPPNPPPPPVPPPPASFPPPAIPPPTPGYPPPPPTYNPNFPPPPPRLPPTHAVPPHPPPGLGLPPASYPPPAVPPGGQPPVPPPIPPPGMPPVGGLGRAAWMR
T12 sequence (Q00535 whole entry): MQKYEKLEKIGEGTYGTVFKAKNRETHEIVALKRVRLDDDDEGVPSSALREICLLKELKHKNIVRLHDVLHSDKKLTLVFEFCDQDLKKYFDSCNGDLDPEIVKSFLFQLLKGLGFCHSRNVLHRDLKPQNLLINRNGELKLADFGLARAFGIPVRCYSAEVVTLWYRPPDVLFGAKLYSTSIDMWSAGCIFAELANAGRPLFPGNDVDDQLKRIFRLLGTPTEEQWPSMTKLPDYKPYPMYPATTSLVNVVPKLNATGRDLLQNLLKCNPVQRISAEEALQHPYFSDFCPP
T12 sequence (Q15078 whole entry partner): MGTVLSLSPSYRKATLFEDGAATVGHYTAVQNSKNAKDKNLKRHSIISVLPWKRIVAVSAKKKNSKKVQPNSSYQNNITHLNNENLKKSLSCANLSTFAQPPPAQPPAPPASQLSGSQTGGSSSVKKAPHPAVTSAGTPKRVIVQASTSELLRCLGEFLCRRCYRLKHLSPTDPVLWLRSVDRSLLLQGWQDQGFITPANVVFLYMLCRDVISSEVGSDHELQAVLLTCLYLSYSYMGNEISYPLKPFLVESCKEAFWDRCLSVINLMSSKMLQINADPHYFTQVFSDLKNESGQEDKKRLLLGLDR
T11 sequence (P36888 with tags, fused parts or gaps with the stated changes limits assumed): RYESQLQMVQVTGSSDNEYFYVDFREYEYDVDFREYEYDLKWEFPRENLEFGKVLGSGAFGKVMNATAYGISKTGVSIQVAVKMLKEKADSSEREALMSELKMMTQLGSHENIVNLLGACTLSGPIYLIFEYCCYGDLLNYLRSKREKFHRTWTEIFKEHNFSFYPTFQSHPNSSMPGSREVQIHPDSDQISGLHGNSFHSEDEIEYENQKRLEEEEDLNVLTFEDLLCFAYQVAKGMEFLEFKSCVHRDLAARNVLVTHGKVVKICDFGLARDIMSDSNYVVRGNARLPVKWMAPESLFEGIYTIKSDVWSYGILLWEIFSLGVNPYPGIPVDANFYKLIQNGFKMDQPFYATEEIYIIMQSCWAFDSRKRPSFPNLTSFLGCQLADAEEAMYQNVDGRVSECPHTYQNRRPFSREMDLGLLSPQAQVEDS
T17 sequence (P50613 whole entry): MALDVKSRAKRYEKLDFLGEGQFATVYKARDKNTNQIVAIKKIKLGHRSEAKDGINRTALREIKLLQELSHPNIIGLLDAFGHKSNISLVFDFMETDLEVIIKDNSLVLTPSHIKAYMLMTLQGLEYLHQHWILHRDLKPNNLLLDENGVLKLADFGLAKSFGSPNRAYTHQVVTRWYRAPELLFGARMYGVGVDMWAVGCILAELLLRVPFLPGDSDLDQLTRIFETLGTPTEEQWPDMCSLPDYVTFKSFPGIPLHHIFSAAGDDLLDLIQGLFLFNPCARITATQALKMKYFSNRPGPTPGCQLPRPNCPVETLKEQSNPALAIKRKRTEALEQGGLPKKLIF
T17 sequence (P51946 whole entry partner): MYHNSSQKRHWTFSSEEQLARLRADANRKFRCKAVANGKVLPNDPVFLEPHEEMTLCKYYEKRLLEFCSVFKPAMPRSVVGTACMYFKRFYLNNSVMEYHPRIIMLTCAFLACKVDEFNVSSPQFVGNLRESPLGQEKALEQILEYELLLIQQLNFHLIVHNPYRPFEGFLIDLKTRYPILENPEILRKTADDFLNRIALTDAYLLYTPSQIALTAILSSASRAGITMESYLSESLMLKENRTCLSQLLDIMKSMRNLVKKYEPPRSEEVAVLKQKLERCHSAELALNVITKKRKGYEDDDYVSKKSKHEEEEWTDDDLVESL
T17 sequence (P51948 whole entry partner): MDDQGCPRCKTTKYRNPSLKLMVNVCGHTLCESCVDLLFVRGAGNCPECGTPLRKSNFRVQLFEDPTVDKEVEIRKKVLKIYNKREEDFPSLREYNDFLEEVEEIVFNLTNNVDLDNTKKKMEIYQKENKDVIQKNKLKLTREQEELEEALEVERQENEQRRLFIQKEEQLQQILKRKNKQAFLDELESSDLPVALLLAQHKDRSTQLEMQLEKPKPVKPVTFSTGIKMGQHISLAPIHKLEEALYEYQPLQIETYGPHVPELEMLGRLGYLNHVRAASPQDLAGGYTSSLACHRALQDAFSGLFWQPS
T6 sequence (P36888 with tags, fused parts or gaps INS595EY limits assumed): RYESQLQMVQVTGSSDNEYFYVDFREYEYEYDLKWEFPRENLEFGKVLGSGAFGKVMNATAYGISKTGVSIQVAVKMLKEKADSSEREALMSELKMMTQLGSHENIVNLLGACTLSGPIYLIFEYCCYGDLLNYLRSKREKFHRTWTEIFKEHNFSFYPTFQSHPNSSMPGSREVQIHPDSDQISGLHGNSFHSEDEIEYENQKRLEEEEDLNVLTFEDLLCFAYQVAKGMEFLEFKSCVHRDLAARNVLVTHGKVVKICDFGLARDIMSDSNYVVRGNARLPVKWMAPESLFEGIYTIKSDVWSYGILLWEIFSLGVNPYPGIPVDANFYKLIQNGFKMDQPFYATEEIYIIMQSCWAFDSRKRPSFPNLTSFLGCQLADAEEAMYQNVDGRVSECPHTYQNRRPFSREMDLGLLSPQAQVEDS
T4 sequence (P36888 with tags, fused parts or gaps INS594R limits assumed): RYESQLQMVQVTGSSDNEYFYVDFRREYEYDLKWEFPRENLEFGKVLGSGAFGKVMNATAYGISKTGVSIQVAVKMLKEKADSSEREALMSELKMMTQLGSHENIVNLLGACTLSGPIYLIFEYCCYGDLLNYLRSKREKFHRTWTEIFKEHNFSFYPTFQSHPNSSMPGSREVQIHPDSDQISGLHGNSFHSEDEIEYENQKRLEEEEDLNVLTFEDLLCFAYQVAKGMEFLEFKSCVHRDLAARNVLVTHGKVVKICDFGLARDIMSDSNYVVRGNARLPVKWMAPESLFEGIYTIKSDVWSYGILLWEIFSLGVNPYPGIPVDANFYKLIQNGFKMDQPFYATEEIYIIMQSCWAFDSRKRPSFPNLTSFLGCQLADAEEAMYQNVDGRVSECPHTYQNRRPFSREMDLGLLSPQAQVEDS

## O=C(Nc1ccc(N2CCNCC2)cc1)c1n[nH]cc1Nc1ncnc2sc3c(c12)CCC3 [Compound 8t]
FLT4/VEGFR3; 0.15 μM, read-out: % Enzyme Activity (Relative to DMSO Controls) FLT4/VEGFR3
  remaining activity at 0.15 µM: 3.62%
FLT4/VEGFR3; Table 5 kinase profiling
  IC50: 4.16 ± 0.19 nM
Aurora B
  remaining activity at 0.15 µM: 55.3%
c-MET
  remaining activity at 0.15 µM: 99%
FLT3 (F594_R595insR); 0.15 μM, read-out: % Enzyme Activity (Relative to DMSO Controls) FLT3 (F594_R595insR)
  remaining activity at 0.15 µM: 0.47%
FLT3 (F594_R595insR); Table 5 kinase profiling
  IC50: 0.63 ± 0.09 nM
JNK1
  remaining activity at 0.15 µM: 39.2%
FLT3 (R595_E596insEY); 0.15 μM, read-out: % Enzyme Activity (Relative to DMSO Controls) FLT3 (R595_E596insEY)
  remaining activity at 0.15 µM: 0.44%
FLT3 (R595_E596insEY); Table 5 kinase profiling
  IC50: 1.59 ± 0.14 nM
JAK2
  remaining activity at 0.15 µM: 32%
CDK2/cyclin A; 0.15 μM, read-out: % Enzyme Activity (Relative to DMSO Controls) CDK2/cyclin A
  remaining activity at 0.15 µM: 4.01%
CDK2/cyclin A; Table 5 kinase profiling
  IC50: 2.56 ± 0.31 nM
BRAF
  remaining activity at 0.15 µM: 77.6%
c-Kit
  remaining activity at 0.15 µM: 64.8%
[1]; Table 5 kinase profiling, read-out: IC50 FLT3 (Y591-V592ins[…])
  IC50: 0.66 ± 0.08 nM
[1]; read-out: % Enzyme Activity (Relative to DMSO Controls) FLT3 (Y591-V592insVDFREYEYD), 0.15 μM, read-out: % Enzyme Activity (Relative to DMSO Controls) FLT3 (Y591-V592ins[…])
  remaining activity at 0.15 µM: 0.54%
CDK5/p35; 0.15 μM, read-out: % Enzyme Activity (Relative to DMSO Controls) CDK5/p35
  remaining activity at 0.15 µM: 9.6%
CDK5/p35; Table 5 kinase profiling
  IC50: 9.64 ± 0.81 nM
CDK9/cyclin K; 0.15 μM, read-out: % Enzyme Activity (Relative to DMSO Controls) CDK9/cyclin K
  remaining activity at 0.15 µM: 7.2%
CDK9/cyclin K; Table 5 kinase profiling
  IC50: 14.2 ± 0.82 nM
KDR/VEGFR2; 0.15 μM, read-out: % Enzyme Activity (Relative to DMSO Controls) KDR/VEGFR2
  remaining activity at 0.15 µM: 7.29%
KDR/VEGFR2; Table 5 kinase profiling
  IC50: 8.32 ± 0.54 nM
FLT1/VEGFR1; 0.15 μM, read-out: % Enzyme Activity (Relative to DMSO Controls) FLT1/VEGFR1
  remaining activity at 0.15 µM: 6.08%
FLT1/VEGFR1; Table 5 kinase profiling
  IC50: 12.4 ± 0.19 nM
FLT3 (F594_R595insREY); 0.15 μM, read-out: % Enzyme Activity (Relative to DMSO Controls) FLT3 (F594_R595insREY)
  remaining activity at 0.15 µM: 0.8%
FLT3 (F594_R595insREY); Table 5 kinase profiling
  IC50: 1.38 ± 0.11 nM
CDK7/cyclin H; 0.15 μM, read-out: % Enzyme Activity (Relative to DMSO Controls) CDK7/cyclin H
  remaining activity at 0.15 µM: 19.9%
CDK7/cyclin H; Table 5 kinase profiling
  IC50: 21.3 ± 1.01 nM
CDK4/cyclin D1; 0.15 μM, read-out: % Enzyme Activity (Relative to DMSO Controls) CDK4/cyclin D1
  remaining activity at 0.15 µM: 1.56%
CDK4/cyclin D1; Table 5 kinase profiling
  IC50: 0.78 ± 0.04 nM
FGFR1
  remaining activity at 0.15 µM: 40%
ALK1/ACVR1
  % Enzyme Activity (Relative to DMSO Controls) ALK1/ACVR1: 57.96%
FMS
  remaining activity at 0.15 µM: 63%
